Laboratory results as given in patent publication US9359419B2, “Treatment of vascular complications of diabetes” (priority 2010, dated 2016).
Entries after “also recorded” stand apart in the source; their conditions may differ.

Key:
[1] = system: U46619-contracted septal coronary arteries; assay: Acetylcholine-induced vasorelaxation of septal coronary arteries from STZ-induced diabetic rats; format: in vivo, rat; settings: TIP peptide 125 μg i.p. every three days for four weeks, vs STZ group, n=3
Text: and tested for their ability to relax in response to progressive concentrations of acetylcholine. The vasorelaxant responses are expressed as percent of maximal control relaxation.

perfused rat hearts = assay: Cardiac permeability by BSA-FITC perfusion (Langendorff method) of hearts from STZ-treated rats; format: in vivo; settings: 125 μg/rat over 4 wks i.p.
Description: Following the same protocol as above, hearts from Ctrl, STZ-treated and TIP/STZ treated rats were isolated after 4 wks. The hearts were perfused using the Langendorff method with BSA-FITC (Di Napoli et al., Nitric Oxide 16 (2007), 228-236). Hearts were subsequently frozen in liquid nitrogen and slices were cut with a microtome. Subsequently, fluorescence was assessed in 4 slices of each heart and cumulative fluorescence responses were recorded.

fresh human whole blood = assay: Release of Interleukin-6 from fresh human whole blood (ELISA); format: cell-based; set-up: Concentration of IL-6: unit of the concentration uncertain; settings: for Concentration of IL-6: 24 hours, n = 5
Description: It was the goal of this study to determine the pro-inflammatory signalling capacity of the AP301 peptide. Whole blood cultures were used and the secretion of interleukin-6 (IL-6), a very sensitive marker for pro-inflammatory stimulation, was quantified by ELISA.
• Test system 25 ml of freshly taken heparinized blood from 5 healthy volunteers (HV) was used in the assays. […]
Whole blood (WB) cultures were done by pipetting 1 ml of WB into wells of 24 well plates. In each experiment unstimulated and control-stimulated cultures were included.
If possible the substances and stimulants to be investigated were always added in an identical volume to each well of a given experiment, not greater than 10% of the total volume contained in a well. Unstimulated controls received PBS. Volume adjustments and dilutions for different treatments were also done with PBS.
The content of each well was mixed and the plates incubated at 37° C. and 5% CO2 for 24 hours. After incubation the content of each well was transferred to a fresh 1.5 ml microtube and centrifuged at 8000-9000×g for 15 minutes. The supernatant of each sample was transferred individually to two 1.5 ml microtubes and kept at −20° C. until use.
Interleukin-6 was quantified by a specific ELISA (Human IL-6 ELISA Set, BD Biosciences, Cat. No. 555220) employing an anti-human IL-6 antibody as capture antibody, a biotinylated anti-human IL-6 detection antibody, avidin-horseradish peroxidase conjugate as enzyme reagent, and recombinant IL-6 as standard. Absorbance measurement was performed at 450 nm using the Packard FusionReader.
The results for each plate were stored and evaluated using the FusionDataAnalysis software. […]

STZ-treated rats = settings: rat, in vivo
Description: In this experiment, Male Sprague-Dawley rats (240 to 265 g, n=3) were divided into three groups: 1. Control rats receiving injections of vehicle alone, 2. rats rendered diabetic with STZ (50 mg/kg, intraperitoneally) and 3. […] Rats with blood levels >350 mg/dL were considered to be diabetic.

C[C@@H]1NC(=O)CNC(=O)[C@H](CCC(=O)O)NC(=O)[C@@H]2CCCN2C(=O)[C@H]([C@@H](C)O)NC(=O)[C@H](CCC(=O)O)NC(=O)[C@H](CCCNC(=N)N)NC(=O)[C@H](CCC(N)=O)NC(=O)CNC(=O)[C@@H](N)CSSC[C@@H](C(=O)O)NC(=O)[C@H](Cc2ccc(O)cc2)NC(=O)[C@H](Cc2c[nH]c3ccccc23)NC(=O)[C@@H]2CCCN2C(=O)[C@H](CCCCN)NC(=O)[C@H](C)NC(=O)[C@H](CCC(=O)O)NC1=O [AP301, (NH2) Cys-Gly-Gln-Arg-Glu-Thr-Pro-Glu-Gly-Ala-Glu-Ala-Lys-Pro-Trp-Tyr-Cys (COOH)]
acetylcholine-induced vasorelaxation response in septal coronary arteries [1]: significantly improved the vasorelaxation response | cardiac permeability (Albumin-FITC incorporation) (perfused rat hearts): significantly inhibits cardiac hyperpermeability | cardiac permeability (Albumin-FITC incorporation) (perfused rat hearts; listed as TIP peptide): inhibits STZ-associated cardiac permeability | Concentration of IL-6 (fresh human whole blood; concentration 1 ng/ml): less than 0.5 pg/ml | Concentration of IL-6 (fresh human whole blood; concentration 3 ng/ml): less than 0.5 pg/ml | Concentration of IL-6 (fresh human whole blood; concentration 1 (unit uncertain)): less than 0.5 pg/ml | Concentration of IL-6 (fresh human whole blood; concentration 10 (unit uncertain)): less than 0.5 pg/ml | IL-6 secretion (pro-inflammatory response) (fresh human whole blood; whole blood cultures from five healthy donors, all concentrations tested (10 μg/ml to 1 ng/ml)): did not induce any detectable level of IL-6 secretion; also recorded: did not induce a pro-inflammatory response | weight (STZ-treated rats): increased weight loss
